Measurements taken from PubChem BioAssay AID1259407 (Chemical Carcinogenesis Research Information System (CCRIS), 2018).
Active and inactive are the calls of the source. The rule behind the calls is not given here.

System: CCRIS mutagenicity, Ames/micronucleus/aberration tests
Test: CCRIS mutagenicity studies
[1] = Test System: AMES SALMONELLA TYPHIMURIUM, Strain/Indicator: TA98, Metabolic Activation: NONE, Method: STANDARD PLATE
[2] = Test System: AMES SALMONELLA TYPHIMURIUM, Strain/Indicator: TA98, Metabolic Activation: RAT LIVER S-9, AROCLOR 1254, Method: STANDARD PLATE
[3] = Test System: AMES SALMONELLA TYPHIMURIUM, Strain/Indicator: TA98, Metabolic Activation: RAT, LIVER, S-9, AROCLOR 1254, Method: STANDARD PLATE
[4] = Test System: AMES SALMONELLA TYPHIMURIUM, Strain/Indicator: TA100, Metabolic Activation: NONE, Method: STANDARD PLATE
[5] = Test System: AMES SALMONELLA TYPHIMURIUM, Strain/Indicator: TA100, Metabolic Activation: RAT LIVER S-9, AROCLOR 1254, Method: STANDARD PLATE
[6] = Test System: AMES SALMONELLA TYPHIMURIUM, Strain/Indicator: TA100, Metabolic Activation: RAT, LIVER, S-9, AROCLOR 1254, Method: STANDARD PLATE
[7] = Test System: AMES SALMONELLA TYPHIMURIUM, Strain/Indicator: TA1535, Metabolic Activation: NONE, Method: STANDARD PLATE
[8] = Test System: AMES SALMONELLA TYPHIMURIUM, Strain/Indicator: TA1535, Metabolic Activation: RAT, LIVER, S-9, AROCLOR 1254, Method: STANDARD PLATE
[9] = Test System: AMES SALMONELLA TYPHIMURIUM, Strain/Indicator: TA1537, Metabolic Activation: NONE, Method: STANDARD PLATE

Oc1c(Cl)c(Cl)c(Cl)c(Cl)c1Cl
mutagenic call (End Point: IN VITRO CHROMOSOMAL ABERRATIONS, Test System: CHINESE HAMSTER OVARY CELLS, Metabolic Activation: NONE): inactive; negative | mutagenic call (Test System: AMES SALMONELLA TYPHIMURIUM, Strain/Indicator: TA97A, Metabolic Activation: NONE, Method: STANDARD PLATE): inactive; negative | mutagenic call (Test System: AMES SALMONELLA TYPHIMURIUM, Strain/Indicator: TA97A, Metabolic Activation: RAT LIVER S-9, AROCLOR 1254, Method: STANDARD PLATE): inactive; negative | mutagenic call (Test System: AMES SALMONELLA TYPHIMURIUM, Strain/Indicator: TA98, Metabolic Activation: HAMSTER, LIVER, S-9, AROCLOR 1254, Method: PREINCUBATION): inactive; negative | mutagenic call (Test System: AMES SALMONELLA TYPHIMURIUM, Strain/Indicator: TA98, Metabolic Activation: NONE, Method: PREINCUBATION): inactive; negative | mutagenic call [1]: inactive; negative | mutagenic call [2]: inactive; negative | mutagenic call (Test System: AMES SALMONELLA TYPHIMURIUM, Strain/Indicator: TA98, Metabolic Activation: RAT, LIVER, S-9, AROCLOR 1254, Method: PREINCUBATION): inactive; negative | mutagenic call [3]: active; positive | mutagenic call (Test System: AMES SALMONELLA TYPHIMURIUM, Strain/Indicator: TA100, Metabolic Activation: HAMSTER, LIVER, S-9, AROCLOR 1254, Method: PREINCUBATION): inactive; negative | mutagenic call (Test System: AMES SALMONELLA TYPHIMURIUM, Strain/Indicator: TA100, Metabolic Activation: NONE, Method: PREINCUBATION): inactive; negative | mutagenic call [4]: inactive; negative | mutagenic call [5]: inactive; negative | mutagenic call (Test System: AMES SALMONELLA TYPHIMURIUM, Strain/Indicator: TA100, Metabolic Activation: RAT, LIVER, S-9, AROCLOR 1254, Method: PREINCUBATION): inactive; negative | mutagenic call (Test System: AMES SALMONELLA TYPHIMURIUM, Strain/Indicator: TA1535, Metabolic Activation: HAMSTER, LIVER, S-9, AROCLOR 1254, Method: PREINCUBATION): inactive; negative | mutagenic call (Test System: AMES SALMONELLA TYPHIMURIUM, Strain/Indicator: TA1535, Metabolic Activation: NONE, Method: PREINCUBATION): inactive; negative | mutagenic call (Test System: AMES SALMONELLA TYPHIMURIUM, Strain/Indicator: TA1535, Metabolic Activation: RAT, LIVER, S-9, AROCLOR 1254, Method: PREINCUBATION): inactive; negative | mutagenic call (Test System: AMES SALMONELLA TYPHIMURIUM, Strain/Indicator: TA1537, Metabolic Activation: HAMSTER, LIVER, S-9, AROCLOR 1254, Method: PREINCUBATION): inactive; negative | mutagenic call (Test System: AMES SALMONELLA TYPHIMURIUM, Strain/Indicator: TA1537, Metabolic Activation: NONE, Method: PREINCUBATION): inactive; negative | mutagenic call (Test System: AMES SALMONELLA TYPHIMURIUM, Strain/Indicator: TA1537, Metabolic Activation: RAT, LIVER, S-9, AROCLOR 1254, Method: PREINCUBATION): inactive; negative | mutagenic call (Test System: CHINESE HAMSTER V-79, Strain/Indicator: V-79/6-THIOGUANINE, Metabolic Activation: NONE, Method: STANDARD PLATE): inactive; negative | mutagenic call (Test System: CHINESE HAMSTER V-79, Strain/Indicator: V-79/6-THIOGUANINE, Metabolic Activation: PRIMARY RAT HEPATOCYTES, Method: STANDARD PLATE): inactive; negative

O=C(O)c1ccc(N=Nc2ccc(O)c(C(=O)O)c2)cc1
mutagenic call [1]: inactive; negative | mutagenic call [3]: inactive; negative | mutagenic call [4]: inactive; negative | mutagenic call [6]: inactive; negative | mutagenic call [7]: inactive; negative | mutagenic call [8]: inactive; negative | mutagenic call [9]: inactive; negative | mutagenic call (Test System: AMES SALMONELLA TYPHIMURIUM, Strain/Indicator: TA1537, Metabolic Activation: RAT, LIVER, S-9, AROCLOR 1254, Method: STANDARD PLATE): inactive; negative | mutagenic call (Test System: AMES SALMONELLA TYPHIMURIUM, Strain/Indicator: TA1538, Metabolic Activation: NONE, Method: STANDARD PLATE): inactive; negative | mutagenic call (Test System: AMES SALMONELLA TYPHIMURIUM, Strain/Indicator: TA1538, Metabolic Activation: RAT, LIVER, S-9, AROCLOR 1254, Method: STANDARD PLATE): inactive; negative | mutagenic call (Test System: CHINESE HAMSTER V-79, Strain/Indicator: V-79 (HGPRT)/8-AZAGUANINE, Metabolic Activation: NONE): inactive; negative | mutagenic call (Test System: CHINESE HAMSTER V-79, Strain/Indicator: V-79 (HGPRT)/8-AZAGUANINE, Metabolic Activation: RAT, LIVER, S-9): inactive; negative

Cc1cc([N+](=O)[O-])c(C)c2c1[nH]c1ccccc12
mutagenic call [1]: active; positive | mutagenic call [2]: active; positive | mutagenic call [4]: inactive; negative | mutagenic call [5]: inactive; negative | mutagenic call [9]: inactive; negative | mutagenic call (Test System: AMES SALMONELLA TYPHIMURIUM, Strain/Indicator: TA1537, Metabolic Activation: RAT LIVER S-9, AROCLOR 1254, Method: STANDARD PLATE): active; positive | mutagenic call (Test System: AMES SALMONELLA TYPHIMURIUM, Strain/Indicator: TA1977, Metabolic Activation: NONE, Method: STANDARD PLATE): active; positive | mutagenic call (Test System: AMES SALMONELLA TYPHIMURIUM, Strain/Indicator: TA1977, Metabolic Activation: RAT LIVER S-9, AROCLOR 1254, Method: STANDARD PLATE): active; positive

C[C@]12CC[C@H](OC(=O)Cc3ccc(N(CCCl)CCCl)cc3)C[C@@H]1CC[C@@H]1[C@@H]2CC[C@]2(C)NC(=O)CC[C@@H]12
mutagenic call [1]: inactive; negative | mutagenic call [3]: inactive; negative | mutagenic call [4]: active; positive | mutagenic call [6]: active; positive | mutagenic call (Test System: AMES SALMONELLA TYPHIMURIUM, Strain/Indicator: TA102, Metabolic Activation: NONE, Method: STANDARD PLATE): active; positive | mutagenic call (Test System: AMES SALMONELLA TYPHIMURIUM, Strain/Indicator: TA102, Metabolic Activation: RAT, LIVER, S-9, AROCLOR 1254, Method: STANDARD PLATE): active; positive | mutagenic call (Test System: AMES SALMONELLA TYPHIMURIUM, Strain/Indicator: TA104, Metabolic Activation: NONE, Method: STANDARD PLATE): inactive; negative | mutagenic call (Test System: AMES SALMONELLA TYPHIMURIUM, Strain/Indicator: TA104, Metabolic Activation: RAT, LIVER, S-9, AROCLOR 1254, Method: STANDARD PLATE): inactive; negative | mutagenic call [7]: active; positive | mutagenic call [8]: active; positive

CC(C)(Oc1ccc(C(=O)c2ccc(Cl)cc2)cc1)C(=O)O
mutagenic call [1]: inactive; negative | mutagenic call (Test System: AMES SALMONELLA TYPHIMURIUM, Strain/Indicator: TA98, Metabolic Activation: RAT, LIVER, S-9, PHENOBARBITAL AND 5,6-BENZOFLAVONE, Method: STANDARD PLATE): inactive; negative | mutagenic call [4]: inactive; negative | mutagenic call (Test System: AMES SALMONELLA TYPHIMURIUM, Strain/Indicator: TA100, Metabolic Activation: RAT, LIVER, S-9, PHENOBARBITAL AND 5,6-BENZOFLAVONE, Method: STANDARD PLATE): inactive; negative | mutagenic call [7]: inactive; negative | mutagenic call (Test System: AMES SALMONELLA TYPHIMURIUM, Strain/Indicator: TA1535, Metabolic Activation: RAT, LIVER, S-9, PHENOBARBITAL AND 5,6-BENZOFLAVONE, Method: STANDARD PLATE): inactive; negative | mutagenic call [9]: inactive; negative | mutagenic call (Test System: AMES SALMONELLA TYPHIMURIUM, Strain/Indicator: TA1537, Metabolic Activation: RAT, LIVER, S-9, PHENOBARBITAL AND 5,6-BENZOFLAVONE, Method: STANDARD PLATE): inactive; negative | mutagenic call (Test System: E. COLI, Strain/Indicator: WP2 UVRA, Metabolic Activation: NONE, Method: STANDARD PLATE): inactive; negative | mutagenic call (Test System: E. COLI, Strain/Indicator: WP2 UVRA, Metabolic Activation: RAT, LIVER, S-9, PHENOBARBITAL AND 5,6-BENZOFLAVONE, Method: STANDARD PLATE): inactive; negative
